Values joined by “and” are separate entries in the source; they are usually repeats but may differ in a detail not shown here. Equal values may be shown once. Read-outs that look alike come from different tables or passages of the source.
Key:
Assay in all cases: biochemical
Assay type in all cases: biochemical
[1] = target: panel of 391 kinases (Homo sapiens, UniProt Q9UEW8); conditions: STK39/STLK3, MK-28 1 µM, ATP 1 µM
[2] = target: panel of 391 kinases (Homo sapiens, UniProt Q9NQU5); conditions: PAK6, MK-28 1 µM, ATP 1 µM
[3] = target: panel of 391 kinases (Homo sapiens, UniProt Q9BXA6); conditions: SSTK/TSSK6, MK-28 1 µM, ATP 1 µM
[4] = target: panel of 391 kinases (Homo sapiens, UniProt Q04771); conditions: ALK2/ACVR1, MK-28 1 µM, ATP 1 µM
[5] = target: panel of 391 kinases (Homo sapiens, UniProt Q8IU85); conditions: CAMK1d, MK-28 1 µM, ATP 1 µM
[6] = target: panel of 391 kinases (Homo sapiens, UniProt Q9H2K8); conditions: TAOK3/JIK, MK-28 1 µM, ATP 1 µM
[7] = target: panel of 391 kinases (Homo sapiens, UniProt Q16644); conditions: MAPKAPK3, MK-28 1 µM, ATP 1 µM
[8] = target: panel of 391 kinases (Homo sapiens, UniProt O00506); conditions: STK25/YSK1, MK-28 1 µM, ATP 1 µM
[9] = target: panel of 391 kinases (Homo sapiens, UniProt P10721); conditions: c-Kit, MK-28 1 µM, ATP 1 µM
[10] = target: panel of 391 kinases (Homo sapiens, UniProt O14733); conditions: MKK7, MK-28 1 µM, ATP 1 µM
[11] = target: panel of 391 kinases (Homo sapiens, UniProt Q8WXR4); conditions: MYO3b, MK-28 1 µM, ATP 1 µM
[12] = target: panel of 391 kinases (Homo sapiens, UniProt Q14164); conditions: IKKe/IKBKE, MK-28 1 µM, ATP 1 µM
[13] = target: panel of 391 kinases (Homo sapiens, UniProt P45985); conditions: MKK4, MK-28 1 µM, ATP 1 µM
[14] = tested on: panel of 391 kinases; conditions: for % Enzyme Activity (relative to DMSO controls): MK-28 1 µM, ATP 1 µM
[15] = target: panel of 391 kinases (Homo sapiens, UniProt Q7L7X3); conditions: TAOK1, MK-28 1 µM, ATP 1 µM
[16] = target: panel of 391 kinases (Homo sapiens, UniProt P49759); conditions: CLK1, MK-28 1 µM, ATP 1 µM
[17] = target: panel of 391 kinases (Homo sapiens, UniProt Q8TD19); conditions: NEK9, MK-28 1 µM, ATP 1 µM
[18] = target: panel of 391 kinases (Homo sapiens, UniProt Q9HCP0); conditions: CK1g1, MK-28 1 µM, ATP 1 µM
[19] = target: panel of 391 kinases (Homo sapiens, UniProt Q15569); conditions: TESK1, MK-28 1 µM, ATP 1 µM
[20] = target: panel of 391 kinases (Homo sapiens, UniProt P21802); conditions: FGFR2, MK-28 1 µM, ATP 1 µM
[21] = target: panel of 391 kinases (Homo sapiens, UniProt Q00526); conditions: MK-28 1 µM, ATP 1 µM; for remaining activity at 1 µM: read-out: % Enzyme Activity (relative to DMSO controls)
[22] = target: panel of 391 kinases (Homo sapiens, UniProt Q13882); conditions: BRK, MK-28 1 µM, ATP 1 µM
[23] = target: panel of 391 kinases (Homo sapiens, UniProt O96017); conditions: CHK2, MK-28 1 µM, ATP 1 µM
[24] = target: panel of 391 kinases (Homo sapiens, UniProt Q8TDX7); conditions: NEK7, MK-28 1 µM, ATP 1 µM
[25] = target: panel of 391 kinases (Homo sapiens, UniProt Q86UE8); conditions: TLK2, MK-28 1 µM, ATP 1 µM
[26] = target: panel of 391 kinases (Homo sapiens, UniProt Q14012); conditions: CAMK1a, MK-28 1 µM, ATP 1 µM
[27] = read-out: % Enzyme Activity (relative to DMSO controls)

CN(/N=C\c1ccc(O)c(O)c1)c1nc(-c2ccccc2)cc(-c2ccccc2)n1 [MK-28]
% Enzyme Activity (relative to DMSO controls) [1]: 106.05% | remaining activity at 1 µM [1, 27]: 108% | % Enzyme Activity (relative to DMSO controls) [2]: 97.64% | remaining activity at 1 µM [2, 27]: 98% | % Enzyme Activity (relative to DMSO controls) [3]: 97.30% | remaining activity at 1 µM [3, 27]: 97.6% | % Enzyme Activity (relative to DMSO controls) [4]: 102.33% | remaining activity at 1 µM [4, 27]: 108% | % Enzyme Activity (relative to DMSO controls) [5]: 86.95% | remaining activity at 1 µM [5, 27]: 87.6% | % Enzyme Activity (relative to DMSO controls) [6]: 100.19% | remaining activity at 1 µM [6, 27]: 103% | % Enzyme Activity (relative to DMSO controls) [7]: 71.56% | remaining activity at 1 µM [7, 27]: 74.1% | % Enzyme Activity (relative to DMSO controls) [8]: 93.29% | remaining activity at 1 µM [8, 27]: 95.7% | % Enzyme Activity (relative to DMSO controls) [9]: 93.67% | remaining activity at 1 µM [9, 27]: 93.8% | % Enzyme Activity (relative to DMSO controls) [10]: 95.27% | remaining activity at 1 µM [10, 27]: 96.9% | % Enzyme Activity (relative to DMSO controls) [11]: 107.45% | remaining activity at 1 µM [11, 27]: 113% | % Enzyme Activity (relative to DMSO controls) [12]: 93.45% | remaining activity at 1 µM [12, 27]: 96% | % Enzyme Activity (relative to DMSO controls) [13]: 102.88% | remaining activity at 1 µM [13, 27]: 103% | number of other hits showing more than 30% increase over control ([14]; 1 μM, 391-kinase panel): 3 | % Enzyme Activity (relative to DMSO controls) ([14]; LYN B): 100.85% and 99.31% | % Enzyme Activity (relative to DMSO controls) ([14]; PKCb2): 90.95% and 90.23% | % Enzyme Activity (relative to DMSO controls) ([14]; PKG1b): 113.02% and 112.43% | % Enzyme Activity (relative to DMSO controls) [15]: 103.55% | remaining activity at 1 µM [15, 27]: 105% | % Enzyme Activity (relative to DMSO controls) [16]: 108.65% | remaining activity at 1 µM [16, 27]: 109% | % Enzyme Activity (relative to DMSO controls) [17]: 96.03% | remaining activity at 1 µM [17, 27]: 101% | % Enzyme Activity (relative to DMSO controls) [18]: 78.20% | remaining activity at 1 µM [18, 27]: 80% | % Enzyme Activity (relative to DMSO controls) [19]: 66.57% | remaining activity at 1 µM [19, 27]: 66.7% | % Enzyme Activity (relative to DMSO controls) [20]: 102.46% | remaining activity at 1 µM [20, 27]: 103% | % Enzyme Activity (relative to DMSO controls) ([21]; CDK3/cyclin E2): 90.11% | remaining activity at 1 µM ([21]; CDK3/cyclin E2): 92.8% | % Enzyme Activity (relative to DMSO controls) ([21]; CDK3/cyclin E): 101.82% | remaining activity at 1 µM ([21]; CDK3/cyclin E): 102% | % Enzyme Activity (relative to DMSO controls) [22]: 102.30% | remaining activity at 1 µM [22, 27]: 104% | % Enzyme Activity (relative to DMSO controls) [23]: 98.51% | remaining activity at 1 µM [23, 27]: 101% | % Enzyme Activity (relative to DMSO controls) [24]: 97.32% | remaining activity at 1 µM [24, 27]: 98.3% | % Enzyme Activity (relative to DMSO controls) [25]: 101.04% | remaining activity at 1 µM [25, 27]: 102% | % Enzyme Activity (relative to DMSO controls) [26]: 77.40% | remaining activity at 1 µM [26, 27]: 77.7%
